The source of these data is the CheMixHub ionic liquid set.

± gives the uncertainty stated by the source.

A short description of the data set: xn = mol fraction of the nth substance listed. Conditions: 101 kPa; for electrical conductivity: x1 = 1.

Turning to `CCCCCCCC[n+]1ccc2ccccc2c1.O=S(=O)([N-]S(=O)(=O)C(F)(F)F)C(F)(F)F` + Cc1ccccc1, the viscosity – broadly, the internal friction of a fluid under shear – (298.15 K, x2 = 0.0818) stood at 308 ± 19 mPa·s; the viscosity (298.15 K, x2 = 0.4775) was found to be 50.6 ± 1.1 mPa·s; the viscosity (298.15 K, x2 = 0.4902) is on record as 48.5 ± 1.1 mPa·s; the viscosity (308.15 K, x2 = 0.0818) is on record as 162.6 ± 6.9 mPa·s; the viscosity (308.15 K, x2 = 0.2746) is listed as 81.6 ± 2.1 mPa·s; the viscosity (308.15 K, x2 = 0.4295) stood at 41.74 ± 0.93 mPa·s. The viscosity (308.15 K, x2 = 0.4775) was determined as 32.56 ± 0.72 mPa·s; the viscosity (318.15 K, x2 = 0.1949) is 67 ± 1.6 mPa·s; the viscosity (318.15 K, x2 = 0.6148) is reported as 11.19 ± 0.24 mPa·s; the viscosity (318.15 K, x2 = 0.8672) is listed as 2.19 ± 0.05 mPa·s; the viscosity (328.15 K, x2 = 0.3638) was determined as 25.85 ± 0.58 mPa·s; the viscosity (328.15 K, x2 = 0.4295) was determined as 19.34 ± 0.43 mPa·s. The viscosity was 12.11 ± 0.27 mPa·s (328.15 K, x2 = 0.5467); 5.51 ± 0.12 mPa·s (328.15 K, x2 = 0.7004); 44.8 ± 1 mPa·s (338.15 K, x2 = 0); 11.71 ± 0.26 mPa·s (338.15 K, x2 = 0.4775).
For `CC[n+]1ccn(C)c1.O=S(=O)([O-])C(F)(F)F` + F[B-](F)(F)F.[Li+], the electrical conductivity reads like this: (288.15 K) 0.605 ± 0.061 S/m; (298.15 K) 0.859 ± 0.086 S/m; (333.15 K) 2.24 ± 0.22 S/m.
`CC[n+]1ccn(C)c1.O=S(=O)([O-])C(F)(F)F` + F[P-](F)(F)(F)(F)F.[Li+] registered an electrical conductivity (288.15 K) of 0.605 ± 0.061 S/m, an electrical conductivity (298.15 K) of 0.859 ± 0.086 S/m and an electrical conductivity (333.15 K) of 2.24 ± 0.22 S/m.
